Measured values: patent US5750136A, “Bioadhesive composition and patch” (priority 1995, dated 1998)

## C[C@H]1O[C@@H](O[C@H]2[C@@H](O)C[C@H](O[C@H]3[C@@H](O)C[C@H](O[C@H]4CC[C@@]5(C)[C@H](CC[C@@H]6[C@@H]5C[C@@H](O)[C@]5(C)[C@@H](C7=CC(=O)OC7)CC[C@]65O)C4)O[C@@H]3C)O[C@@H]2C)C[C@H](O)[C@@H]1O [digoxin]
From patches of Examples 2-4
  bioavailability of digoxin is substantial for a period: at least 24 h
In words, Table I
  delivery from bioadhesive compositions: delivered in a sustained fashion
